Measured values reported in patent US20260256134A1, “NanoEmulsion Composite Mixture of Essential Oils with Biodegradable Polymers and Co-Surfactants for Antimicrobial Activities and Enhanced Thermal Stability and Antioxidant Activities” (The American University in Cairo, priority 2022, published 2026).

Columns and labels:
[1] = orally administered to rats; cited from earlier work
MRSA = assay: Inhibition zone method, antimicrobial activity; format: cell-based, Methicillin-resistant Staphylococcus aureus (MRSA)
Description: (§1) Inhibition zone method was followed in order to test the antimicrobial efficiency of the selected nanoemulsion composite mixture samples against 6 chosen strains of gram-positive bacterial strains, 6 strains of gram-negative bacterial strains 6 strains of fungi as shown in the following list;
(§2) The following formulae were defined: • Formula 1 (F1): Green tea essential oil • Formula 2 (F2): Chitosan solution • Formula 3 (F3): benzalkonium solution • Formula 4 (F4): control (antimicrobial compound) • Formula 5 (F5): Green tea essential oil+Chitosan solution • Formula 6 (F6): The final formula of the nanoemulsion composite mixture
(§3) Inhibition zone method was followed in order to test the antimicrobial efficiency of the 6 selected nanoemulsion composite mixture samples against 6 chosen strains of gram-positive bacterial strains, 6 strains of gram-negative bacterial strains 6 strains of fungi.

Streptococcus mutants = assay: Inhibition zone method, antimicrobial activity; format: cell-based
Description: as §1, §2, §3

Enterobacter colacae = assay: Inhibition zone method, antimicrobial activity; format: cell-based
Description: as §1, §2, §3

Penicillium italicum = assay: Inhibition zone method, antimicrobial activity; format: cell-based
Description: as §1, §2, §3

Staphylococcus aureus = assay: Inhibition zone method, antimicrobial activity; format: cell-based
Description: as §1, §2, §3

Salmonella Typhium = assay: Inhibition zone method, antimicrobial activity; format: cell-based
Description: as §1, §2, §3

Bacillus subtilis = assay: Inhibition zone method, antimicrobial activity; format: cell-based
Description: as §1, §2, §3

Pseudomonas aeruginosa = assay: Inhibition zone method, antimicrobial activity; format: cell-based
Description: as §1, §2, §3

Candida albicans = assay: Inhibition zone method, antimicrobial activity; format: cell-based
Description: as §1, §2, §3

Proteus vulgaris = assay: Inhibition zone method, antimicrobial activity; format: cell-based
Description: as §1, §2, §3

Enterococcus faecalis = assay: Inhibition zone method, antimicrobial activity; format: cell-based
Description: as §1, §2, §3

Fusarium moniliform = assay: Inhibition zone method, antimicrobial activity; format: cell-based
Description: as §1, §2, §3

Aspergillus fumigatus = assay: Inhibition zone method, antimicrobial activity; format: cell-based
Description: as §1, §2, §3

Klebsella pneumonia = assay: Inhibition zone method, antimicrobial activity; format: cell-based
Description: as §1, §2, §3

Eisherecia coli = assay: Inhibition zone method, antimicrobial activity; format: cell-based
Description: as §1, §2, §3

Aspergillus niger = assay: Inhibition zone method, antimicrobial activity; format: cell-based
Description: as §1, §2, §3

Micrococcus spp. = assay: Inhibition zone method, antimicrobial activity; format: cell-based
Description: as §1, §2, §3

Geotricum candiaum = assay: Inhibition zone method, antimicrobial activity; format: cell-based, Geotricum candidum
Description: as §1, §2, §3

Row | Substance | Lethal dose 50 (LD50) [1] [mg/kg] | Antimicrobial activity expressed as % inhibition (MRSA) [%] | Antimicrobial activity expressed as % inhibition (Streptococcus mutants) [%] | Antimicrobial activity expressed as % inhibition (Enterobacter colacae) [%] | Antimicrobial activity expressed as % inhibition (Penicillium italicum) [%] | Antimicrobial activity expressed as % inhibition (Staphylococcus aureus) [%] | Antimicrobial activity expressed as % inhibition (Salmonella Typhium) [%] | Antimicrobial activity expressed as % inhibition (Bacillus subtilis) [%] | Antimicrobial activity expressed as % inhibition (Pseudomonas aeruginosa) [%] | Antimicrobial activity expressed as % inhibition (Candida albicans) [%] | Antimicrobial activity expressed as % inhibition (Proteus vulgaris) [%] | Antimicrobial activity expressed as % inhibition (Enterococcus faecalis) [%] | Antimicrobial activity expressed as % inhibition (Fusarium moniliform) [%] | Antimicrobial activity expressed as % inhibition (Aspergillus fumigatus) [%] | Antimicrobial activity expressed as % inhibition (Klebsella pneumonia) [%] | Antimicrobial activity expressed as % inhibition (Eisherecia coli) [%] | Antimicrobial activity expressed as % inhibition (Aspergillus niger) [%] | Antimicrobial activity expressed as % inhibition (Micrococcus spp.) [%] | Antimicrobial activity expressed as % inhibition (Geotricum candiaum) [%]
1 | Benzalkonium chloride [BAC] | 234 to 525 | – | – | – | – | – | – | – | – | – | – | – | – | – | – | – | – | – | –
2 | benzalkonium [Formula F3] | – | 90 | 45 | 94 | 96 | 50 | 41 | 72 | 66 | 50 | 95 | 60 | 90 | 52 | 80 | 63 | 70 | 64 | 89
